Measured values taken from ChEMBL document CHEMBL1201862, “PubChem BioAssay data set” (2004).
Active and inactive are the calls of the source.

How the values were obtained:
[1] = target: NAD-dependent protein deacylase sirtuin-5, mitochondrial (Homo sapiens, UniProt Q9NXA8); test: sirtuin-5 deacylation blockers, concentration series – biochemical, fluorescence imaging, cherry-pick, set 5, dose response (AID 720591);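 note: desuccinylation of succinyl peptide AMC substrate read as fluorescence after trypsin release; potency of inhibitors that lower fluorescence and may act on trypsin instead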
Chain of NAD-dependent protein deacylase sirtuin-5, mitochondrial (Q9NXA8 whole entry): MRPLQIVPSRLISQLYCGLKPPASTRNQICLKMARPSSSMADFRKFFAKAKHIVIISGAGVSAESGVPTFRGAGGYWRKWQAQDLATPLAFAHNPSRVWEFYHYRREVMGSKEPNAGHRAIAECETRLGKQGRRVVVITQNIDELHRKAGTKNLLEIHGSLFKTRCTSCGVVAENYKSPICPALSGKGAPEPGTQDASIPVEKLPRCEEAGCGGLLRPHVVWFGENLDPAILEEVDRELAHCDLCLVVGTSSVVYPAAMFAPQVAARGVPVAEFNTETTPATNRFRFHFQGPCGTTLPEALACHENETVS

[2] = toxicity to A549 lung cells – cell-based, plate reader, dry powder, set 6, cytotoxicity control, dose response (AID 743312); type: functional
cells [3] = conditions: HEK293
[4] = viability loss in THP-1 monocytes – THP-1 cells, cytotoxicity control for Vif-APOBEC3G degradation inhibitor project, dose response (AID 1117359); type: functional; conditions: THP-1
[5] = target: E3 ubiquitin-protein ligase Mdm2 (Homo sapiens, UniProt Q00987); test: MDM2-luc reporter signal enhancers, multi-concentration potency testing, MDM2 ubiquitin-protein ligase inhibitor program, whole-cell format, luminescence detection, 384-well microplate (AID 1394); type: functional;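 note: MDM2 E3 inhibitors raise luminescence so EC50 is for signal enhancement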
Chain of E3 ubiquitin-protein ligase Mdm2 (Q00987 whole entry): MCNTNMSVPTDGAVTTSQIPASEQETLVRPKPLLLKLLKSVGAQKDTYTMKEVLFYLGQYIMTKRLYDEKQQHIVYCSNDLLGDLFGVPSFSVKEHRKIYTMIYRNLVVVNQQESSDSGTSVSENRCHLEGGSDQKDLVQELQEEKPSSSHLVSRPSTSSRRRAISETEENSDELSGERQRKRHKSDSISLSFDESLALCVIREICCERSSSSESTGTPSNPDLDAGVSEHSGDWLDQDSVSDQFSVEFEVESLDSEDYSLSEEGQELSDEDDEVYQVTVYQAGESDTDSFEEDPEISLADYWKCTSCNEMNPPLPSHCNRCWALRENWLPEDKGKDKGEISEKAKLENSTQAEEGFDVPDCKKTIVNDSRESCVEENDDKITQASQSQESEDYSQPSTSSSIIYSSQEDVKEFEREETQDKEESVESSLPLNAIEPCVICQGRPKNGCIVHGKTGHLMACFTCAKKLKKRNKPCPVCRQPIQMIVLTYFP

Vero [6] = test: cells; type: functional; conditions: Chlorocebus sabaeus
[7] = Luminescence-based cell-based high throughput dose response assay to identify activators of the DAF-12 from the parasite S. stercoralis (ssDAF-12).; type: functional
[8] = target: T1, Oxysterols receptor LXR-beta (Homo sapiens, UniProt P55055); test: LXR agonists, Gal4 luciferase reporter, dose response, counter-screen for ssDAF-12 agonist project, cell-based, luminescence, HEK293, S. stercoralis campaign (AID 720737); type: functional; conditions: read-out: IC50 (the source's name)
T1 sequence (P55055 whole entry): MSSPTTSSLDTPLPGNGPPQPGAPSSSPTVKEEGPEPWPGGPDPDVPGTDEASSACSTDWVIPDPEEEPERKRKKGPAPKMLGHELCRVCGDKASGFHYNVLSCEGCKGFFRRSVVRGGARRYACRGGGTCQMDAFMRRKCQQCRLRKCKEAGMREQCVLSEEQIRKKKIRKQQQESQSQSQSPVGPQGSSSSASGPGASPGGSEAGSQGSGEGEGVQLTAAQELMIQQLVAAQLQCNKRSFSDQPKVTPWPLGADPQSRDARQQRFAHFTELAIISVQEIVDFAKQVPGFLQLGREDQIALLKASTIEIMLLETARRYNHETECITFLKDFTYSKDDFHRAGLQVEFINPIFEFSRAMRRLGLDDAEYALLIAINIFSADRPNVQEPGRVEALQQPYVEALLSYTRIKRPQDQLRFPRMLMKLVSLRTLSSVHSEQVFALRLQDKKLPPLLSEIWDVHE

[9] = target: T1, Oxysterols receptor LXR-beta; type: functional, cell-based
cells [10] = test: cells
Heat shock protein HSP90 = Heat shock protein HSP90 (Homo sapiens, UniProt P07900+P08238); test: Hsp90 blockade concentration-response – dose response (AID 712); type: functional
[11] = Dd2 parasite growth inhibition in erythrocytes – SYBR Green, dry powder samples, set 4, dose response (AID 1159572); type: functional, cell-based
Transthyretin = Transthyretin (Homo sapiens, UniProt P02766); test: Luminescence-based cell-based high throughput dose response assay to identify activators of Transthyretin (TTR) transcription.; type: functional
[12] = target: T2, Low molecular weight phosphotyrosine protein phosphatase (Homo sapiens, UniProt P24666); test: inhibition of LMPTP-A enzymatic activity – biochemical, OMFP substrate, fluorescence intensity, set 2, dose response (AID 743307); type: functional
T2 sequence (P24666 whole entry): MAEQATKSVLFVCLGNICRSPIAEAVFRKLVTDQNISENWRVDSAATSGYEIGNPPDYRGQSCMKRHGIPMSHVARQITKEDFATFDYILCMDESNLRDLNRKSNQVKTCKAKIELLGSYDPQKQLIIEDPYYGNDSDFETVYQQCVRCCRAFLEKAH

[13] = target: T2, Low molecular weight phosphotyrosine protein phosphatase; test: inhibition of human LMPTP enzyme activity – biochemical, absorbance, pNPP substrate, LMPTP-A isoform, set 2, orthogonal assay, dose response (AID 743308); type: functional
[14] = M. tuberculosis H37Rv growth inhibitors, H37Rv strain (AID 1626); type: functional
[15] = A549 lung cell viability reduction – CellTiter-Glo luminescence, cherry-pick, cytotoxicity control, dose response (AID 743484); type: functional, cell-based
[16] = HepG2 viability loss by ATP level – cell-based, CellTiter-Glo luminescence, cherry-pick, set 4, cytotoxicity control, dose response (AID 743480); type: functional
[17] = rise of 2N DNA cells, HeLa – IC50, dose response (AID 1117349); type: functional, cell-based
[18] = rise of 4N DNA cells, HeLa – IC50, dose response (AID 1117351); type: functional, cell-based
Vero [19] = test: Vero cell viability after compound exposure – synthesized analogs, set II, cytotoxicity control for West Nile virus antiviral project, SAR follow-up (AID 2402); type: functional; conditions: Chlorocebus sabaeus
NADPH oxidase 1 = target: T3, NADPH oxidase 1 (Homo sapiens, UniProt Q9Y5S8); test: Late-stage luminescence-based cell-based dose response assay to identify inhibitors of NADPH oxidase 1 (NOX1): Synthesized analogs.; type: functional
T3 sequence (Q9Y5S8 whole entry): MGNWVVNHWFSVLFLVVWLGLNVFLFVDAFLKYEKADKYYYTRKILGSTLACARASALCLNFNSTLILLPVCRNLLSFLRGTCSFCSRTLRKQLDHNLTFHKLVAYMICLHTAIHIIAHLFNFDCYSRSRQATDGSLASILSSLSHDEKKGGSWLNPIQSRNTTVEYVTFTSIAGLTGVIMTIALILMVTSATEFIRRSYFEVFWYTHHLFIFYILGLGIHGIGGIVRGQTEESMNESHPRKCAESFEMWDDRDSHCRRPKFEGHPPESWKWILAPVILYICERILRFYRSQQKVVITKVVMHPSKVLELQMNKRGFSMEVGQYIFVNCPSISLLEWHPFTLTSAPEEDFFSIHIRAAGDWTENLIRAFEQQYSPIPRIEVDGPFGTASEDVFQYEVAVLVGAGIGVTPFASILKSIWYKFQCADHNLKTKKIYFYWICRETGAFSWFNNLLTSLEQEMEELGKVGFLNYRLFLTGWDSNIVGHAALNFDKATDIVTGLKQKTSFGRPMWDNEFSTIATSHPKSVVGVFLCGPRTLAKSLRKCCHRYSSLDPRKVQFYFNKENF

[20] = Luminescent dose response cell-based high throughput screening assay for inhibitors of the Janus kinase 2 mutant JAK2V617F. [Related pubchem assays: 1446 (Primary screen.), 1521 (Confirmation assay.), 1486 (Counter screen.)]; type: functional
[21] = target: Luciferin 4-monooxygenase (Photinus pyralis, UniProt P08659); test: inhibition of purified Photinus pyralis luciferase – biochemical, luminescence, dose response (AID 1891)
Chain of Luciferin 4-monooxygenase (P08659 whole entry): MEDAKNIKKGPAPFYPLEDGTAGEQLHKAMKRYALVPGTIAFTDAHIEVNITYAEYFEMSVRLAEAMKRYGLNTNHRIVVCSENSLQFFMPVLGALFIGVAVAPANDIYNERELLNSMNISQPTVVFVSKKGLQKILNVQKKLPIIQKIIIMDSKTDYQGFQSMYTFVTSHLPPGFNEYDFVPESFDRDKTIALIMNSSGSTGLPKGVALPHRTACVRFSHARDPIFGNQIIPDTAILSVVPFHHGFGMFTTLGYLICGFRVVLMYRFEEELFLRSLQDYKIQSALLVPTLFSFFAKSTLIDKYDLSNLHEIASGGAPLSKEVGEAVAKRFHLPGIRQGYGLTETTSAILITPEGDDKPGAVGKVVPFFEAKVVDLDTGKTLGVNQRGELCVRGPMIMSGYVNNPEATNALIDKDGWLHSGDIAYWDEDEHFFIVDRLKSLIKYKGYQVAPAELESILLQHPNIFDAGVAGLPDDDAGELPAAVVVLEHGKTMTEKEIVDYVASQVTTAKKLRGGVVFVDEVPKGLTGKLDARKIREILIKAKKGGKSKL

[22] = Luminescence Cell-Based Dose Confirmation HTS to Identify Inhibitors of Platelet Dense Granule Release. [Related pubchem assays: 1663 (Primary HTS), 1678 (Summary of Project)]; type: functional
[23] = microbe, parasite or virus in culture; type: functional; conditions: Mycobacterium tuberculosis
[24] = target: T4, Sphingosine 1-phosphate receptor 4 (Homo sapiens, UniProt O95977); test: Late stage fluorescence dose response cell-based screening assay for antagonists of the Sphingosine 1-Phosphate Receptor 4 (S1P4). [Related pubchem assays: 1524 (Confirmation screen (S1P4 antagonists).), 1510 (Primary screen (S1P4 antagonists).), 1853 (Summary AID (S1P4 antagonists).), 1692 (Dose response screen (S1P4 antagonists).)]; type: functional
T4 sequence (O95977 whole entry): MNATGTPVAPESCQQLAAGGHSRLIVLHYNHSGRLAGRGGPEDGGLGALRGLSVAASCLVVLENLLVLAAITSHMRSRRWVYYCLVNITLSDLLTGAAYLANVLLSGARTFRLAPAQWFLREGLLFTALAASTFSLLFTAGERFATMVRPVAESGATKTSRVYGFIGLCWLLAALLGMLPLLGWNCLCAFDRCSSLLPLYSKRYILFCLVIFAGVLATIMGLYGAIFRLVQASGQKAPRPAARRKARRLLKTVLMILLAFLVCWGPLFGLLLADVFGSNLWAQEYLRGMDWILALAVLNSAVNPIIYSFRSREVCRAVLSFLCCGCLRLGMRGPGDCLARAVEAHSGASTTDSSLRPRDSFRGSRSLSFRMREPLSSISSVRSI

[25] = target: T4, Sphingosine 1-phosphate receptor 4; test: Fluorescence dose response cell-based high throughput screening assay for antagonists of the Sphingosine 1-Phosphate Receptor 4 (S1P4). [Related pubchem assays: 1524 (Confirmation in triplicates.), 1510 (Primary screen.)]; type: functional
[26] = target: Sphingosine 1-phosphate receptor 1 (Homo sapiens, UniProt P21453); type: functional;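 note: Tango beta-arrestin reporter U2OS cells stimulated with S1P near its EC80; inhibitor potency meaning antagonism of receptor activation by the natural agonist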
Chain of Sphingosine 1-phosphate receptor 1 (P21453 whole entry): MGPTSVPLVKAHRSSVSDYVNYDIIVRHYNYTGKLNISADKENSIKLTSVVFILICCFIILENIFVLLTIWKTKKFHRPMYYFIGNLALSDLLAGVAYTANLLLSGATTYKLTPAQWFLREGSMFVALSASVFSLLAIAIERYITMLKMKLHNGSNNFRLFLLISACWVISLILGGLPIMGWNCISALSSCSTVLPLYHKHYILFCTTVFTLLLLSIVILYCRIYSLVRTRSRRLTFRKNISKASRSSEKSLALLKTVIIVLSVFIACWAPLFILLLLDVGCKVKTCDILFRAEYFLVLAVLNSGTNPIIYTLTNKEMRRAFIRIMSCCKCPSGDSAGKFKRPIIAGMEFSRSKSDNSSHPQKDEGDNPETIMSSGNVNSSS

[27] = target: T5, Heat shock factor protein 1 (Mus musculus, UniProt P38532); test: enhancement of HSF1-driven luciferase signal – cell-based, NIH3T3, luminescence, dose retest, confirmation (AID 435004); type: functional;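 note: stress induced by proteasome inhibitor MG132 added 30 min after compound; luciferase reporter driven by HSF1 response element in NIH3T3 cells; actives raise luminescence as potentiators of the MG132 stress response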
T5 sequence (P38532 whole entry): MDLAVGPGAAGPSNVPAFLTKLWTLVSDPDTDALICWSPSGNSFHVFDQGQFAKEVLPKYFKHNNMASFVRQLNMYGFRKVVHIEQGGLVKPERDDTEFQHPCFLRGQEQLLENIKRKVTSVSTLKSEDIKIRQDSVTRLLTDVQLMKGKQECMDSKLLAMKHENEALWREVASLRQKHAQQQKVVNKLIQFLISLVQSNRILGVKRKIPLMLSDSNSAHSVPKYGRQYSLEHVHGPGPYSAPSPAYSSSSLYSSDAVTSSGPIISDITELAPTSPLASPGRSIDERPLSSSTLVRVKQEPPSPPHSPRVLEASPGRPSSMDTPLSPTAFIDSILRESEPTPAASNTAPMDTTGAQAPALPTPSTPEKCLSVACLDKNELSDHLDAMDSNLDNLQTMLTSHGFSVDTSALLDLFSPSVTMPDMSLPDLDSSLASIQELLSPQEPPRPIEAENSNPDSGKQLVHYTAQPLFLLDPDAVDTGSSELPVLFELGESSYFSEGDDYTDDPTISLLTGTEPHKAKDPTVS

[28] = IC50 of Artemis nuclease activity blockers – biochemical, fluorescence intensity, dose response (AID 720701); type: functional;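 note: Artemis endonuclease enzyme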
[29] = target: G-protein coupled receptor 183 (Homo sapiens, UniProt P32249); test: SAR confirmation of small molecule antagonists of the EBI2 receptor via a luminescent beta-arrestin assa.; type: functional
Chain of G-protein coupled receptor 183 (P32249 whole entry): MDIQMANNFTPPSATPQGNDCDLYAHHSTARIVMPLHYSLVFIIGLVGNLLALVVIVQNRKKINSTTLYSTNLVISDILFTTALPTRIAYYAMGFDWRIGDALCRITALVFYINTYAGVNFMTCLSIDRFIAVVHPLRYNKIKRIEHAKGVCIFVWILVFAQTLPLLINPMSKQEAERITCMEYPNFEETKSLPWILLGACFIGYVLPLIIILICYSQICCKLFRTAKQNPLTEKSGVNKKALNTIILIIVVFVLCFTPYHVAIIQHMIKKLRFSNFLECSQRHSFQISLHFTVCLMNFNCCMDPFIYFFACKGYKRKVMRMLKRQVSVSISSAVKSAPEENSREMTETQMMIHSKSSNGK

Bcl-2-related protein A1 [30] = target: T6, Bcl-2-related protein A1 (Mus musculus, UniProt Q07440); test: displacement of Bid BH3 peptide from Bfl-1 – biochemical, fluorescence polarization, FITC-Bid, mouse, primary screen (AID 432)
T6 sequence (Q07440 whole entry): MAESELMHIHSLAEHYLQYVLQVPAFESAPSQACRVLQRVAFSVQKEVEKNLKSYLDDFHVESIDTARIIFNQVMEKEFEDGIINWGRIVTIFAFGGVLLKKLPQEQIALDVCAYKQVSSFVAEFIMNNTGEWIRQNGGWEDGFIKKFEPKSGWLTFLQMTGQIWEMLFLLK

Bcl-2-related protein A1 [31] = target: T6, Bcl-2-related protein A1; test: small-molecule antagonists of Bfl-1/BH3 interaction – biochemical, TR-FRET, mouse Bfl-1, confirmation (AID 621);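 note: TR-FRET binding of GST-Bfl-1 to FITC-labelled Bid peptide via terbium antibody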
[32] = viability loss in A549 lung cells – cell-based, 24 h, CellTiter-Glo luminescence, cherry-picks, cytotoxicity control, dose response (AID 1053115); type: functional; conditions: A549, 24 h
[33] = P. falciparum Dd2 growth inhibitors, dose response, SYBR Green, cherry-picked samples (AID 1159567); type: functional, cell-based

CCOc1ccc(CCN2C(=O)C(=O)N([C@@H](Cc3ccccc3)CN3CCC[C@@H]3CN3C(=O)C(=O)NC[C@@H]3Cc3ccc(O)cc3)C[C@@H]2Cc2ccccc2)cc1
AC50 [1]: > 30 µM (inactive)

Cc1ccc(OCCn2cnc3ccccc32)c(C(C)C)c1
AC50 [2]: 24.5 µM (active)
AC50 (cells [3]): 39.8 µM (active)

CCC(C)(c1nnnn1-c1c(C)cccc1C)N(N=O)c1ccccc1Cl (configuration not stated)
CC50 [4]: > 40 µM (active)

CCOC(=O)N1C/C(=C\c2ccccc2)C(=O)/C(=C/c2ccccc2)C1
EC50 [5]: 0.61 µM (active)
CC50 (Vero [6]): 23 µM (active)

O=[N+]([O-])c1ccc2oc(-c3cccc(O)c3)nc2c1
IC50 [7]: > 67.5 µM (inactive)
EC50 [8]: > 67.5 µM (inactive)
EC50 [9]: > 67.6 µM (inactive)
EC50 (cells [10]): > 67.6 µM (inactive)

Cc1cccc(NC(=O)c2c(O)c3cccc4c3n(c2=O)CCC4)n1
IC50 (Heat shock protein HSP90): > 50 µM

COc1ccc2c3c([nH]c2c1)[C@H](CO)NCC31CCN(C(=O)Nc2ccccc2F)CC1
AC50 [11]: 1.52 µM (active)

Cc1cc(C(=O)N2CCc3ccccc32)n(-c2ccccc2)n1
EC50 (Transthyretin): > 167 µM (inactive)

c1ccc(-c2nc(NC3CCCCC3)c3ccccc3n2)cc1
IC50 [12]: 19.1 µM (active)
IC50 [13]: > 80 µM (inactive)

COc1ccc(NC(=O)c2ccc(-c3ccc([N+](=O)[O-])cc3)o2)cc1
IC50 [14]: > 100 µM (active)
AC50 [15]: > 52 µM (inactive)
AC50 [16]: > 52 µM (inactive)

CCCCCCCCCCCCCCCC[N+](C)(C)Cc1ccccc1 [CETALKONIUM CHLORIDE]
IC50 [17]: > 10 µM (inactive)
IC50 [18]: > 10 µM (inactive)

OC1c2c(F)cccc2N=C2CCCCCN21 (configuration not stated)
CC50 (Vero [19]): > 200 µM (active)

COC(=O)Nc1ccc2c(c1)N(C(=O)CCCl)c1ccccc1S2
IC50 (NADPH oxidase 1): > 50 µM (not active)

O=C(C=C=Nc1ccccc1)C(=O)N=C=Cc1ccccc1
IC50 [20]: 1.91 µM (active)
EC50 [21]: > 112 µM (not active)
EC50 [22]: 47 µM (active)
CC50 [23]: 16.6 µM (active)
IC50 [24]: 4.55 µM (not active)
IC50 [25]: 0.972 µM (active)
IC50 [26]: > 49.8 µM (not active)
EC50 [27]: 5.61 µM (inconclusive)
CC50 (Vero [6]): 18.9 µM (active)

CCCCn1/c(=N/C(=O)c2ccc3c(c2)OCO3)c(C#N)cc2c(=O)n3cccc(C)c3nc21
IC50 [28]: > 20 µM (inactive)

O=C(/C=C/c1ccc(Br)cc1)N1CCN(C(=O)c2ccc(C(F)(F)F)cc2)CC1
IC50 [29]: 0.00188 µM (active)

COC(=O)Cn1c2c(c3cc(C)ccc31)CCCC2
IC50 (Bcl-2-related protein A1 [30]): > 100 µM (not active)
IC50 (Bcl-2-related protein A1 [31]): > 100 µM (not active)

OC[C@H]1Nc2ccc(-c3ccccc3)cc2[C@H]2[C@@H]1CCN2Cc1ccc(F)cc1
AC50 [32]: 46.4 µM (active)
AC50 [33]: 1.25 µM (active)
